Target: NEDD8-activating enzyme E1 regulatory subunit/NEDD8-activating enzyme E1 catalytic subunit (Human, UniProt Q8TBC4)
Assay: Test of Inhibiting NAE Enzyme Activity at the Molecular Level
Method: 1. Preliminary Evaluation Experiment of Inhibiting NAE Enzyme Activity at the Molecular Level by CompoundsHomogeneous Time-Resolved Fluorescence (HTRF) technology was used to detect the in vitro inhibitory effect of the compound on NAE enzyme activity. […] IC50 was calculated with a GraphPad software.

Chain of NEDD8-activating enzyme E1 regulatory subunit/NEDD8-activating enzyme E1 catalytic subunit (Q13564 whole entry): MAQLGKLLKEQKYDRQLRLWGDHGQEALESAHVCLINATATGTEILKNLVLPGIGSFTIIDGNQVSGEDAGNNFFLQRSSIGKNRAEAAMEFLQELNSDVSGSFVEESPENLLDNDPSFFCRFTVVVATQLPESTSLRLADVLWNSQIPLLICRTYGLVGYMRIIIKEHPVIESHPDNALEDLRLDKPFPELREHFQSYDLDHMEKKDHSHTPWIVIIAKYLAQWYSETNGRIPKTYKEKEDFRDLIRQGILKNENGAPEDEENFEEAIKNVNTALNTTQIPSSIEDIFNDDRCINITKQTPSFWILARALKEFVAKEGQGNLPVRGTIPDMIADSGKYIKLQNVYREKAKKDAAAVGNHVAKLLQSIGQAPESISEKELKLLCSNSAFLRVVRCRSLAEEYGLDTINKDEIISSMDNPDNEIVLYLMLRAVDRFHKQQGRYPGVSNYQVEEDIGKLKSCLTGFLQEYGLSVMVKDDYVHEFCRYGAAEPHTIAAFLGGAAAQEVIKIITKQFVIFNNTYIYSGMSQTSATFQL
Chain of NEDD8-activating enzyme E1 regulatory subunit/NEDD8-activating enzyme E1 catalytic subunit (Q8TBC4 whole entry): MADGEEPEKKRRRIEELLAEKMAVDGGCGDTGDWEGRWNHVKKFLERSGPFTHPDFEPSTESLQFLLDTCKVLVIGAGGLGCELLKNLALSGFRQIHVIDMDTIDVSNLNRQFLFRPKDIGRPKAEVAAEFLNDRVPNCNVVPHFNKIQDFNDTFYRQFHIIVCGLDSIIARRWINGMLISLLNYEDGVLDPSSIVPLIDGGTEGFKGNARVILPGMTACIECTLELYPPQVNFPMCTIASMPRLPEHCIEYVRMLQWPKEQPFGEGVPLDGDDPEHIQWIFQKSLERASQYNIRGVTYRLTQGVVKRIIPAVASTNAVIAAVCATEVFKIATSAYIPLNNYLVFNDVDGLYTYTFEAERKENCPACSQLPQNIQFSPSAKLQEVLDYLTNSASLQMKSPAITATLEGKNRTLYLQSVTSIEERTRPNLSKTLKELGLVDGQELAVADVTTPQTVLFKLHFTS

Row | Structure (SMILES) | IC50
1 | NS(=O)(=O)OCC1CC(n2nnc3c(Nc4n[nH]c5ccccc45)ncnc32)CC1O (centres undefined) [US12378251, Compound S17] | > 1000 nM
2 | NS(=O)(=O)OCC1CC(n2nnc3c(Nn4ccc5ccccc54)ncnc32)CC1O (centres undefined) [US12378251, Compound S18] | > 1000 nM
3 | COC(=O)[C@H]1C=C[C@@H](Nc2ncnc3c2nnn3C2CC(O)C(COS(N)(=O)=O)C2)C1 (some centres undefined) [US12378251, Compound S20] | < 100 nM
4 | NS(=O)(=O)OCC1CC(n2nnc3c(Nc4cnc5ccccn45)ncnc32)CC1O (centres undefined) [US12378251, Compound S19] | > 1000 nM
5 | NS(=O)(=O)OCC1CC(n2nnc3c(N[C@H]4CCc5ccccc54)ncnc32)CC1O (some centres undefined) [US12378251, Compound S1] | < 100 nM
6 | NS(=O)(=O)OC[C@@H]1C[C@@H](n2nnc3c(N[C@@H]4C[C@H]4c4ccc(F)c(F)c4)ncnc32)CC1O (some centres undefined) [US12378251, Compound S16] | > 1000 nM
7 | NS(=O)(=O)OCC1CC(n2nnc3c(NCCc4ccccc4)ncnc32)CC1O (centres undefined) [US12378251, Compound S6] | < 100 nM
8 | NS(=O)(=O)OCC1CC(n2nnc3c(NCc4ccco4)ncnc32)CC1O (centres undefined) [US12378251, Compound S4] | < 100 nM
9 | NS(=O)(=O)OCC1CC(n2nnc3c(NC4CCCC4)ncnc32)CC1O (centres undefined) [US12378251, Compound S21] | > 1000 nM

Next, values leading:

Row | IC50 | Structure (SMILES)
10 | < 100 nM | NS(=O)(=O)OCC1CC(n2nnc3c(NCc4cccs4)ncnc32)CC1O (centres undefined) [US12378251, Compound S3]
11 | < 100 nM | NS(=O)(=O)OCC1CC(n2nnc3c(N[C@H]4CC5(CCNCC5)c5ccccc54)ncnc32)CC1O (some centres undefined) [US12378251, Compound S14]
12 | < 100 nM | NS(=O)(=O)OCC1CC(n2nnc3c(N[C@@H]4c5ccccc5C[C@@H]4O)ncnc32)CC1O (some centres undefined) [US12378251, Compound S9]
13 | < 100 nM | NS(=O)(=O)OCC1CC(n2nnc3c(NCc4ccccc4F)ncnc32)CC1O (centres undefined) [US12378251, Compound S2]
14 | < 100 nM | CCCCCCNc1ncnc2c1nnn2C1CC(O)C(COS(N)(=O)=O)C1 (centres undefined) [US12378251, Compound S8]

Reference: BindingDB's records for patent US12378251 (Shanghai Institute Of Materia Medica, 2025)
